In US6087366A (The Trustees of Columbia University in the City of New York, priority 1996, dated 2000):
Where two headings read alike, the source gives them in different places.

Legend:
[1] = test system: neuronally-differentiated PC12 cells; test: survival of neuronally-differentiated PC12 cells after NGF withdrawal; format: cell-based, rat; details: for EC (maximal): Rattus norvegicus
Protocol: (§1) For survival experiments, naive or neuronally-differentiated PC12 cells were washed extensively in serum-, NGF-free medium as previously described (6,24) and replated onto collagen-coated 24-well tissue culture dishes at a density of approximately 2×10^5 cells per well. The final volume of medium in each well, including all drugs was 1 ml. To allow time for blockade of DNA synthesis, naive PC12 cells were, in some cases, pretreated with drug for 16 hr prior to serum withdrawal. NGF-treated neuronally-differentiated cells were not pretreated with drug prior to serum deprivation. At appropriate times of culture under the desired conditions, cells were lysed and the numbers of viable cells were determined as previously described (24). The number of intact nuclei was determined by counting in a hemacytometer. All counts were performed in triplicate, and survival data are expressed as a percentage of cells plated on day 0+/-SEM.

[2] = as above; format: cell-based, rat; details: rat; post-mitotic neuronally-differentiated PC12 cells, with NGF, day 3; read-out: death in the presence of NGF
Protocol: as §1

c-Jun kinase (JNK) [3] = test: c-Jun kinase activation in NGF-deprived neuronally-differentiated PC12 cells; format: cell-based, rat; details: flavopiridol 1 μM, olomoucine 200 μM
Protocol: (§2) c-Jun kinase (JNK) was affinity purified from PC12 cell extracts with GST-c-Jun (a gift from Dr. Michael Karin, University of California, San Diego) bound to GSH-agarose beads (Sigma) by methods previously described (34). c-Jun kinase activity was determined by an in vitro solid-phase kinase assay as described previously (34). Activated c-Jun kinase was isolated from PC12 cells treated with 0.5 mM sodium arsenite for 30 min. […] GST-c-Jun was resolved on a 8.5% SDS gel and incorporation of ^32 PO4 was quantified by autoradiography and densitometry.

c-Jun kinase (JNK) [4] = test: in vitro solid-phase kinase assay, phosphorylation of GST-c-Jun by activated JNK; format: biochemical, rat; details: for IC50: read-out: IC50, inhibition of GST-c-Jun phosphorylation by activated JNK in vitro
Protocol: as §2

rat sympathetic neurons = test: survival of rat sympathetic neurons after NGF withdrawal; format: cell-based; details: for survival of NGF-deprived sympathetic neurons: flavopiridol 1 μM, iso-olomoucine 200 μM
Protocol: The cells were plated in 0.5 ml of medium per well in collagen-coated 24-well dishes at a density of approximately 0.5 ganglia per well. […] To eliminate non-neuronal cells, a mixture of uridine and 5-fluorodeoxyuridine (10 μM each) were added to the cultures on the following day. […] The appropriate drug and/or NGF or anti-mouse NGF antibody (1:200 dilution) was added in a final volume of 0.5 ml of the same medium described above. At appropriate times, the numbers of viable, phase bright neurons were determined by strip counting as previously described (33). All survival data are expressed as relative to the original number of cells counted for each well. All experimental points were performed in triplicate and are reported as mean+/-SEM,

[5] = test system: neuronally-differentiated PC12 cells; test: rate of protein synthesis ([3H]-leucine incorporation) in neuronally-differentiated PC12 cells; format: cell-based, rat
Protocol: (§3) Neuronally-differentiated PC12 cells and sympathetic neurons were plated on 24-well dishes as described above. After the cultures were pretreated with the appropriate drug for 1 hr, 5 μCi [^3 H]-leucine was added per well and the cells were allowed to incorporate the isotope for 10 hr. The cultures were washed and prepared for scintillation counting as described above for thymidine incorporation. Background levels of radioactivity was determined by treating wells with 5 μg/ml cycloheximide. All experimental points were performed in triplicate and the data are presented relative to untreated control samples as mean+/-SEM.

sympathetic neurons = test: rate of protein synthesis ([3H]-leucine incorporation) in sympathetic neurons; format: cell-based; details: Rattus norvegicus, Sympathetic neuron
Protocol: as §3

[6] = survival of naive PC12 cells with or without serum; format: cell-based, rat; details: rat, naive pc12 cells; serum-containing medium, day 3; read-out: death of naive PC12 cells in the presence of serum
Protocol: as §1

naive PC12 cells [7] = test: survival of naive PC12 cells with or without serum; format: cell-based, rat; details: 16 hrs pretreatment, serum withdrawal
Protocol: as §1

naive PC12 cells [8] = test: [3H]-thymidine incorporation by naive PC12 cells; format: cell-based, rat; details: compared with olomoucine
Protocol: Naive PC12 cells were plated in collagen-coated 24-well dishes at a density of 4×10^5 per well in RPMI 1640 medium containing 3 μM insulin (Sigma) or 10% horse serum and 5% fetal calf serum. […] The cells were pretreated with the appropriate drug for a period of 16 hr prior to the addition of 1 μCi per well of [^3 H]-thymidine (NEN Products, Dupont). The cells were exposed to thymidine for 1-2 hour and then washed three times with cold PBS. Each well was extracted with 1 ml of 10% TCA at 4° C. for 1 hr, and the insoluble material was solubilized overnight at room temperature with 0.3 ml 1N NaOH. After neutralization with an equal volume of 1 N HCl, the solution was quantified by scintillation counting. The level of background counts was determined by treating cells with 10 μM aphidicolin. All experimental points were performed in triplicate. All data are presented relative to untreated control samples as mean+/-SEM.

cdk1 = details: read-out: IC50, inhibition of cdk1 activity; cited from earlier work
GST-ERK1 = details: read-out: IC50, inhibition of GST-ERK1 activity in vitro; cited from earlier work
[9] = neuronally-differentiated PC12 cells

SMILES | cytotoxicity at 72 h [2] [%] | protection from cell death after NGF withdrawal [1, 9] | level of JNK activation after NGF deprivation (c-Jun kinase (JNK) [3]) | IC50 (c-Jun kinase (JNK) [4]) [µM] | survival of NGF-deprived sympathetic neurons (rat sympathetic neurons) | cytotoxicity at 72 h [6] [%] | survival of serum-deprived naive PC12 cells (naive PC12 cells [7]) | also measured
COc1cccc(-c2cc(=O)c3ccccc3o2)c1N [PD 098059] |  |  |  |  |  |  |  | NGF-stimulated neurite regeneration ([1]; 20-100 μM, PC12 cells passaged into serum-free medium with NGF): effectively suppressed NGF-stimulated neurite regeneration; effect on NGF-promoted survival ([1]; 20-100 μM, naive or neuronally-differentiated PC12 cells, serum-free medium with or without NGF): neither blocked nor mimicked the capacity of NGF to promote survival
CN1CC[C@H](c2c(O)cc(O)c3c(=O)cc(-c4ccccc4Cl)oc23)[C@H](O)C1 [flavopiridol, (-) cis-5,7-dihydroxy-2-(2-chlorophenyl) -8[4-(3-hydroxy-1-methyl) -piperidinyl]-4H-benzopyran-4-one] | ~20 | good maintenance of survival even 5 days after NGF withdrawal | did not decrease the level of JNK activation | > 12 | full survival for at least four days | 75 | died somewhat more quickly than control cells | EC (maximal) ([1]; PC-12, neuronally-differentiated PC12 cells, serum-free medium, read-out: concentration of maximal protection from death induced by NGF withdrawal): 1 µM; effect on in vitro phosphorylation of GST-c-Jun (c-Jun kinase (JNK) [4]; 12 μM): no effect; effect on in vitro phosphorylation of GST-c-Jun (c-Jun kinase (JNK) [4]; 50 μM): significantly inhibited phosphorylation; inhibition at 1 µM ([5]; Rattus norvegicus, PC-12): ~25%; inhibition at 1 µM (sympathetic neurons): ~25%
Cn1cnc2nc(NCCO)nc(NCc3ccccc3)c21 [iso-olomoucine] |  | far less effective than olomoucine |  |  | ineffective |  |  | inhibition of thymidine incorporation (naive PC12 cells [8]): far less effective than olomoucine; IC50 (cdk1): > 500 µM
Cn1cnc2c(NCc3ccccc3)nc(NCCO)nc21 [olomoucine, 2-(2-hydroxyethylamino) -6-benzylamino-9-methylpurine] | ~20 |  | did not decrease the level of JNK activation | ~100 |  | 75 | died at about the same rate as control cells | EC (maximal) ([1]; PC-12, read-out: concentration of maximal protection from death induced by NGF withdrawal): 200 µM; viability at 200 µM (rat sympathetic neurons; Rattus norvegicus, Sympathetic neuron, 168 h, read-out: neurons still viable): ~75%; effect on protein synthesis ([5]; PC12 cell cultures, 200 μM): no effect; inhibition at 200 µM (sympathetic neurons): ~30%; IC50 (GST-ERK1): 30 µM
